{
  "source": "patent US9586896B2",
  "about": "“Nitroxyl donors with improved therapeutic index” (Cardioxyl Pharmaceuticals, Inc., priority 2013, dated 2017)",
  "experiment": "Exploratory studies on the cause of the side effects of CXL-1020",
  "settings": "in vivo",
  "method": "Exploratory studies were continued to determine the cause of the undesirable side effects of CXL-1020 at the higher, but still clinically desirable, doses. […] Studies were conducted with alternative nitroxyl donors that were structurally unrelated to CXL-1020 but had similar half-lives for nitroxyl donation (half-lives of about 2 minutes). For these donors, nitroxyl was at its highest intravascular concentration at the catheter tip and immediately downstream in the vein into which the catheter had been inserted. In all instances, local vascular side effects at the catheter tip were observed.",
  "data": [
    {"smiles": "CS(=O)(=O)c1ccccc1S(=O)O", "note": "[byproduct of CXL-1020]", "values": [
      {"measurement": "side effect studies with the byproduct", "value": "negative"}
    ]}
  ]
}
